# PubChem BioAssay AID1963986 (Molecular Pharmacology Branch, DTP, NCI, 2024)
# Several values for one entry are separate records, joined by “and”; a condition that tells them apart may be missing. Identical values can stand only once.
# System: 171881-019-R-J1-PDC tumor spheroid viability
# Assay: Anticancer human tumor 171881-019-R-J1-PDC patient-derived invasive breast carcinoma cell line growth inhibition [PI3K]
# Conditions: spheroids with HUVEC and MSC; for viability, T/C: stronger effect = lower value
# Method in brief: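 Stroma-containing spheroids: tumor line, pooled-donor HUVEC, hMSC. Treatments: targeted agents with PI3K inhibitors. Dosing: clinically relevant, half-log spacing, 10 microM ceiling without known Cmax. Read-out: cell viability.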
# [1] = curve of first compound, second compound 0.0316 µM
# [2] = curve of first compound, second compound 0.1 µM
# [3] = curve of first compound, second compound 0.316 µM
# [4] = curve of first compound, second compound 1 µM
# [5] = second compound 0.0316 µM, first compound 0.0316 µM
# [6] = second compound 0.0316 µM, first compound 0.1 µM
# [7] = second compound 0.1 µM, first compound 0.0316 µM
# [8] = second compound 0.1 µM, first compound 0.1 µM
# [9] = second compound 0.316 µM, first compound 0.0316 µM
# [10] = second compound 0.316 µM, first compound 0.1 µM
# [11] = second compound 1 µM, first compound 0.0316 µM
# [12] = second compound 1 µM, first compound 0.1 µM
# 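Also: spheroids exposed to compound for 7 days before viability read.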
# 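For viability, T/C in this document: 100% = DMSO vehicle-treated spheroids.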
smiles,measurement,setting,value
C=CC(=O)N1CCN(c2nc(=O)n(-c3c(C)ccnc3C(C)C)c3nc(-c4c(O)cccc4F)c(F)cc23)C(C)C1 (stereo unspecified) + CC(Nc1ncnc2nc[nH]c12)c1cc2cccc(Cl)c2c(=O)n1-c1ccccc1,IC50,[1],> 10000 nM
same,IC50,[2],> 10000 nM
same,IC50,[3],> 10000 nM
same,IC50,[4],> 10000 nM
same,IC50,"curve of first compound, second compound 3.16 µM",9100 nM
same,IC50,"curve of first compound, second compound 10 µM",5290 nM
same,"viability, T/C",[5],95.3%
same,"viability, T/C",[6],94.3%
same,"viability, T/C","second compound 0.0316 µM, first compound 0.316 µM",94.6%
same,"viability, T/C","second compound 0.0316 µM, first compound 1 µM",94.3%
same,"viability, T/C","second compound 0.0316 µM, first compound 3.16 µM",106%
same,"viability, T/C","second compound 0.0316 µM, first compound 10 µM",58.9%
same,"viability, T/C",[7],104%
same,"viability, T/C",[8],88.7%
same,"viability, T/C","second compound 0.1 µM, first compound 0.316 µM",87.2%
same,"viability, T/C","second compound 0.1 µM, first compound 1 µM",84.1%
same,"viability, T/C","second compound 0.1 µM, first compound 3.16 µM",108%
same,"viability, T/C","second compound 0.1 µM, first compound 10 µM",57.6%
same,"viability, T/C",[9],108%
same,"viability, T/C",[10],103%
same,"viability, T/C","second compound 0.316 µM, first compound 0.316 µM",98.9%
same,"viability, T/C","second compound 0.316 µM, first compound 1 µM",112%
same,"viability, T/C","second compound 0.316 µM, first compound 3.16 µM",105%
same,"viability, T/C","second compound 0.316 µM, first compound 10 µM",61%
same,"viability, T/C",[11],101%
same,"viability, T/C",[12],105%
same,"viability, T/C","second compound 1 µM, first compound 0.316 µM",106%
same,"viability, T/C","second compound 1 µM, first compound 1 µM",112%
same,"viability, T/C","second compound 1 µM, first compound 3.16 µM",99.4%
same,"viability, T/C","second compound 1 µM, first compound 10 µM",53.4%
same,"viability, T/C","second compound 3.16 µM, first compound 0.0316 µM",96.3%
same,"viability, T/C","second compound 3.16 µM, first compound 0.1 µM",88.3%
same,"viability, T/C","second compound 3.16 µM, first compound 0.316 µM",90.6%
same,"viability, T/C","second compound 3.16 µM, first compound 1 µM",93.1%
same,"viability, T/C","second compound 3.16 µM, first compound 3.16 µM",88.2%
same,"viability, T/C","second compound 3.16 µM, first compound 10 µM",46.6%
same,"viability, T/C","second compound 10 µM, first compound 0.0316 µM",63.9%
same,"viability, T/C","second compound 10 µM, first compound 0.1 µM",60.9%
same,"viability, T/C","second compound 10 µM, first compound 0.316 µM",65.6%
same,"viability, T/C","second compound 10 µM, first compound 1 µM",68.6%
same,"viability, T/C","second compound 10 µM, first compound 3.16 µM",64.5%
same,"viability, T/C","second compound 10 µM, first compound 10 µM",32%
Cn1ncc(Cl)c1-c1cc(C(=O)NC(CN)Cc2cccc(F)c2)sc1Cl (stereo unspecified),"viability, T/C",compound 0.0316 µM,80.2% [middle of 4 runs]
same,"viability, T/C",compound 0.1 µM,55.6% [middle of 4 runs]
same,"viability, T/C",compound 0.316 µM,34% [middle of 4 runs]
same,"viability, T/C",compound 1 µM,21.5% [middle of 4 runs]
same,"viability, T/C",compound 3.16 µM,13.1% [middle of 4 runs]
same,"viability, T/C",compound 10 µM,4.48% [middle of 4 runs]
same,IC50,curve of compound,121 nM and 127 nM and 155 nM
Cn1ncnc1[C@H]1c2n[nH]c(=O)c3cc(F)cc(c23)N[C@@H]1c1ccc(F)cc1 + CC(Nc1ccc2c(c1)OCCn1cc(N3C(=O)OCC3C(F)F)nc1-2)C(N)=O,IC50,"curve of first compound, second compound 0.00316 µM",> 100 nM
same,IC50,"curve of first compound, second compound 0.01 µM",> 100 nM
same,IC50,[1],> 100 nM
same,IC50,[2],< 0.316 nM
same,IC50,[3],< 0.316 nM
same,IC50,[4],< 0.316 nM
same,"viability, T/C","second compound 0.00316 µM, first compound 0.000316 µM",85.4%
same,"viability, T/C","second compound 0.00316 µM, first compound 0.001 µM",96.5%
same,"viability, T/C","second compound 0.00316 µM, first compound 0.00316 µM",95.2%
same,"viability, T/C","second compound 0.00316 µM, first compound 0.01 µM",91.6%
same,"viability, T/C","second compound 0.00316 µM, first compound 0.0316 µM",95.9%
same,"viability, T/C","second compound 0.00316 µM, first compound 0.1 µM",70.6%
same,"viability, T/C","second compound 0.01 µM, first compound 0.000316 µM",79%
same,"viability, T/C","second compound 0.01 µM, first compound 0.001 µM",76.4%
same,"viability, T/C","second compound 0.01 µM, first compound 0.00316 µM",78.2%
same,"viability, T/C","second compound 0.01 µM, first compound 0.01 µM",65.5%
same,"viability, T/C","second compound 0.01 µM, first compound 0.0316 µM",81.5%
same,"viability, T/C","second compound 0.01 µM, first compound 0.1 µM",71.5%
same,"viability, T/C","second compound 0.0316 µM, first compound 0.000316 µM",54%
same,"viability, T/C","second compound 0.0316 µM, first compound 0.001 µM",55.7%
same,"viability, T/C","second compound 0.0316 µM, first compound 0.00316 µM",51.5%
same,"viability, T/C","second compound 0.0316 µM, first compound 0.01 µM",52%
same,"viability, T/C",[5],55.3%
same,"viability, T/C",[6],48.7%
same,"viability, T/C","second compound 0.1 µM, first compound 0.000316 µM",37.8%
same,"viability, T/C","second compound 0.1 µM, first compound 0.001 µM",38.9%
same,"viability, T/C","second compound 0.1 µM, first compound 0.00316 µM",36.8%
same,"viability, T/C","second compound 0.1 µM, first compound 0.01 µM",38%
same,"viability, T/C",[7],36.8%
same,"viability, T/C",[8],34.5%
same,"viability, T/C","second compound 0.316 µM, first compound 0.000316 µM",26.2%
same,"viability, T/C","second compound 0.316 µM, first compound 0.001 µM",26.3%
same,"viability, T/C","second compound 0.316 µM, first compound 0.00316 µM",26.1%
same,"viability, T/C","second compound 0.316 µM, first compound 0.01 µM",25%
same,"viability, T/C",[9],26.2%
same,"viability, T/C",[10],21.1%
same,"viability, T/C","second compound 1 µM, first compound 0.000316 µM",21.7%
same,"viability, T/C","second compound 1 µM, first compound 0.001 µM",18.7%
same,"viability, T/C","second compound 1 µM, first compound 0.00316 µM",21.2%
same,"viability, T/C","second compound 1 µM, first compound 0.01 µM",18.6%
same,"viability, T/C",[11],19.8%
same,"viability, T/C",[12],17.7%
